Assay results taken from patent publication EP0668872B1 (priority 1992, dated 1994).

Tested on: calcium channels
Details: read-out: IC50 values for blocking calcium channels; cerebellar granule cells of 8 day old rats, 6, 7 and 8 days of culture; fura2/AM fluorescence, 37°C

In the case of `COc1ccc(CCN(C)CCCC(C#N)(c2ccc(OC)c(OC)c2)C(C)C)cc1OC` (stereo not shown) [Verapamil], the IC50 is reported as 4.8 µM.
